Key:
[1] = molecular target: muscarinic receptors (cerebral cortex); experiment: Binding to muscarinic receptors, 3H-N-methylscopolamine displacement, cerebral cortex; parameters: species or system male Sprague-Dawley rats; settings: cerebral cortex homogenate 1:3000; 0.3 n molar 3H-N-methylscopolamine; 30° C., 45 minutes; pH 7.4; read-out: Receptor binding tests IC50, Cortex
Protocol: (§1) 3. STUDIES OF BINDING TO MUSCARINIC RECEPTORS: DETERMINATION OF THE IC50 VALUES
(§2) The organ donors were male Sprague-Dawley rats with a body weight of from about 180 to 220 gm each. After the heart, stomach, and cerebral cortex had been removed, the remainder of the operation was carried out in ice-cold Hepes-HCl buffer (pH 7.4; 100 m molar NaCl, 10 m molar MgCl2). The smooth muscle of the fundus of the stomach was separated from the mucous membrane of the stomach and subjected to preliminary homogenization. The whole heart was cut up with scissors. All the organs were then homogenized in a Potter apparatus.
(§3) For the binding test, the homogenized organs were diluted as follows:
(§4) The homogenized organ preparations were incubated at a specific concentration of the radioligand and with a series of concentrations of the non-radioactive test substances in an Eppendorf centrifuge tube at 30° C. The duration of incubation was 45 minutes. As substance 0.3 n molar ^3 H-N-methylscopolamine (^3 H-NMS) was used as the radioligand. After incubation had been brought to an end by centrifuging at 14000 g, the radioactivity in the pellet was determined. It represents the sum of the specific and non-specific binding of ^3 H-NMS. The proportion of non-specific binding was defined as the radioactivity which was bound in the presence of 1μ molar quinuclidinylbenzylate. Four measurements were taken in each case. The IC50 values of the non-labelled test substances were determined graphically. They represent the concentration of test substance at which the specific binding of ^3 H-NMS to the muscarinic receptors in the various organs was inhibited by 50%.

[2] = molecular target: T1, muscarinic receptors (whole heart) (Rattus norvegicus, UniProt P10980); experiment: Binding to muscarinic receptors, 3H-N-methylscopolamine displacement, whole heart; parameters: species or system male Sprague-Dawley rats; settings: whole heart homogenate 1:250; 0.3 n molar 3H-N-methylscopolamine; 30° C., 45 minutes; pH 7.4; read-out: Receptor binding tests IC50, Heart
T1 construct: from tissue; host or cells: whole heart of male Sprague-Dawley rats, homogenate
T1 sequence (P10980 1-466): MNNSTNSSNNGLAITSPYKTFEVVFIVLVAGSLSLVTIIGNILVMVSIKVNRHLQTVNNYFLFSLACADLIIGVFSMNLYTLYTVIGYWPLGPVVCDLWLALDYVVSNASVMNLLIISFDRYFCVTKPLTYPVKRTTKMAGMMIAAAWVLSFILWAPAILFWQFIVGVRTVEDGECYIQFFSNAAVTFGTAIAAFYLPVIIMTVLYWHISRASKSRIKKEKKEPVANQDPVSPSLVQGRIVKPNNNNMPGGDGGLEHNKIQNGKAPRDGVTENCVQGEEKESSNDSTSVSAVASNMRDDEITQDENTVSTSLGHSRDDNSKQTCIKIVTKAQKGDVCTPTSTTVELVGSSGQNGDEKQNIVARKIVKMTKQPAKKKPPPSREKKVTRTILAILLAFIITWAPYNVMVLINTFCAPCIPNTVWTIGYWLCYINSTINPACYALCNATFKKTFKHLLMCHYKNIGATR
Protocol: as §1, §2, §3
as §4, with “It represents the sum of the specific and non-specific binding of ^3 H-NMS.” left out, “Four measurements were taken in each case.” left out, “They represent the concentration of test substance at which the specific binding of ^3 H-NMS to the muscarinic receptors in the various organs was inhibited by 50%.” left out

[3] = system: muscarinic receptors (oxotremorine-induced secretion of saliva); experiment: Oxotremorine test: inhibition of salivation; assay type: in vivo, female albino rats (Crl:COBS-CD (SD) BR strain); settings: iv, 0.25 h; rat, test substance i.v. 15 minutes before oxotremorine 0.083 mg/kg i.v.; blind test
Protocol: (§5) Oxotremorine, a specific against for muscarinic receptors produces lesions in the mucous membrane of the stomach in rats and increases their secretion of saliva. This test method was chosen so that any selective activity of an antimuscarinic substance on the stomach could be identified.
(§6) Ten female albino rats (of the Crl:COBS-CD (SD) BR strain) with a body weight of from 120 to 150 gm apiece were used in each treatment group and were kept without food for 24 hours before the start of the test but given free access to drinking water.
(§7) To determine, in preliminary tests, the muscarinic effect of oxotremorine on each of the symptons studies, a dosage/activity curve was drawn up with at least three dosages for each symptom.
(§8) When the antimuscarinic substances were tested, the dosage of oxotremorine which triggered the symptom in question in 90 to 100% of the animals in the preliminary tests was used.
Secretion of saliva: 0.083 mg/kg i.v.
(§9) Each antimuscarinic substance was administered intravenously in uniformly graduated doses 15 minutes before the oxotremorine was administered. Control groups were given corresponding quantities of the solvent and suspension agent instead of the test substance. Immediately after the oxotremorine was administered, the animals were placed in a glass case for 15 minutes and observed.
The ED50 values were determined using the method described by LITCHFIELD and WILCOXON (J. Pharmacol. Exp. Ther. 96, 99, 1949).

[4] = system: muscarinic receptors (oxotremorine-induced lesions in the mucous membrane of the stomach); experiment: Oxotremorine test: lesions in the mucous membrane of the stomach (anti-ulcerative effect); assay type: in vivo, female albino rats (Crl:COBS-CD (SD) BR strain); settings: iv; rat, test substance i.v. 15 minutes before oxotremorine 0.62 mg/kg i.v.; neostigmine 1 mg/kg oral
Protocol: as §5, §6, §7, §8
Lesions in the mucous membrane of stomach: 0.62 mg/kg i.v.
as §9
The effects on lesions of the nucous membrane of the stomach were evaluated as follows:
The lesions of the gastric mucous membrane were produced by intravenous injection of 0.62 mg/kg of oxotremorine 30 minutes after the oral administration of 1 mg/kg of neostigmine (a cholinesterase inhibitor). Sixty minutes after the administration of the neostigmine, the animals were killed, and the stomachs were removed, opened, and examined for the presence of any lesions in the mucous membrane. The protective effect of the test substances was expressed as the percentage inhibition (percentage of animals with lesions).
The ED50 and ED70 values were determined using the method of LITCHFIELD and WILCOXON (eee above).

Testing for mydriasis = experiment: Testing for mydriasis; parameters: species or system rats; settings: in vivo, iv; rat; pupil size observed for 10 minutes; blind test
Protocol: The effect of the test substances on the pupil size in rats was investigated as follows:
The substances were administered intravenously to groups of 10 animals in at least three uniformly graduated doses.

[5] = molecular target: muscarinic receptors (smooth muscle of the fundus of the stomach); experiment: Binding to muscarinic receptors, 3H-N-methylscopolamine displacement, smooth muscle of fundus of stomach; parameters: species or system male Sprague-Dawley rats; settings: smooth muscle of fundus homogenate 1:100; 0.3 n molar 3H-N-methylscopolamine; 30° C., 45 minutes; pH 7.4; read-out: Receptor binding tests IC50, Smooth Muscle Fundus of Stomach
Protocol: as §1, §2, §3
Smooth muscle of the fundus of the stomach: 1:100
as §4

Structure (SMILES) | IC50 [1] | IC50 [2] | ED50 [3] | ED50 [4] | ED70 [4] | ED50 at 10 min (Testing for mydriasis) | IC50 [5]
CN1CCC(OC(=O)N2c3ccccc3NC(=O)c3ccccc32)CC1 [A] | 0.0055 µM | 0.042 µM | 0.064 mg/kg | 0.0155 mg/kg | 0.036 mg/kg | 0.071 mg/kg | 0.06 µM
CN1CCC(NC(=O)N2c3ccccc3NC(=O)c3ccccc32)CC1 [B] | 0.013 µM | 0.075 µM | 0.022 mg/kg | 0.0025 mg/kg | 0.0048 mg/kg | 0.023 mg/kg | 0.1 µM
CN1CCN(NC(=O)N2c3ccccc3NC(=O)c3ccccc32)CC1 [C] | 0.018 µM |  | 0.032 mg/kg | 0.0036 mg/kg | 0.007 mg/kg | 0.0825 mg/kg | 0.09 µM
